Results published in the NIST ThermoML archive (doi:10.1021/je900954y).
Numbers after ± are expanded uncertainties.

What was measured:
[1] = 101 kPa, Liquid
[2] = xn = mol fraction of the nth substance listed; conditions: 101 kPa, Liquid

OCCO [1,2-ethanediol]
[1]
Conditions	mass density [kg/m3]	viscosity [mPa·s]
298.15 K	1109.2 ± 0.7	15.41 ± 0.19
303.15 K	1104.2 ± 0.7	12.73 ± 0.16
308.15 K	1100.6 ± 0.7	10.66 ± 0.14

OCCO [1,2-ethanediol] + CCC(C)O
[2], x2 = 0
Conditions	mass density [kg/m3]	viscosity [mPa·s]
298.15 K	1109.2 ± 0.7	15.41 ± 0.19
303.15 K	1104.2 ± 0.7	12.73 ± 0.16
308.15 K	1100.6 ± 0.7	10.66 ± 0.14

CC(O)CO (stereo not drawn) [1,2-propanediol]
[1]
Conditions	mass density [kg/m3]	viscosity [mPa·s]
298.15 K	1033.1 ± 0.5	45.44 ± 0.53
303.15 K	1029.9 ± 0.5	33.99 ± 0.4
308.15 K	1025.4 ± 0.5	26.34 ± 0.31

CC(O)CO (stereo not drawn) [1,2-propanediol] + CCCCCCCO
[2]
Conditions	mass density, 298.15 K [kg/m3]	mass density, 303.15 K [kg/m3]	mass density, 308.15 K [kg/m3]	viscosity, 298.15 K [mPa·s]	viscosity, 303.15 K [mPa·s]	viscosity, 308.15 K [mPa·s]
x2 = 0	1033.1 ± 0.5	1029.9 ± 0.5	1025.4 ± 0.5	45.44 ± 0.53	33.99 ± 0.4	26.34 ± 0.31
x2 = 0.1383	980.3 ± 0.4	976.4 ± 0.4	972 ± 0.5	27.34 ± 0.33	20.69 ± 0.25	16.05 ± 0.2
x2 = 0.3163	928.8 ± 0.5	925 ± 0.5	920.8 ± 0.5	15.9 ± 0.2	12.8 ± 0.16	9.977 ± 0.13
x2 = 0.386	912.5 ± 0.6	908.6 ± 0.6	904.6 ± 0.6	13.64 ± 0.17	10.88 ± 0.14	8.925 ± 0.12
x2 = 0.4049	908.3 ± 0.6	904.4 ± 0.6	900.4 ± 0.6	13.19 ± 0.17	10.75 ± 0.14	8.567 ± 0.11
x2 = 0.4673	895.4 ± 0.6	891.6 ± 0.6	887.6 ± 0.6	11.94 ± 0.15	9.431 ± 0.12	7.663 ± 0.1
x2 = 0.6097	869.7 ± 0.6	866 ± 0.7	862.2 ± 0.7	9.882 ± 0.13	7.655 ± 0.1	6.373 ± 0.09
x2 = 0.7341	851 ± 0.7	847.3 ± 0.7	843.7 ± 0.7	8.159 ± 0.11	6.401 ± 0.09	5.414 ± 0.079
x2 = 0.8294	838.5 ± 0.7	834.9 ± 0.7	831.3 ± 0.7	7.132 ± 0.098	5.815 ± 0.083	4.963 ± 0.074

CC(O)CO (stereo not drawn) [1,2-propanediol] + CCCCCCO
[2]
Conditions	mass density, 298.15 K [kg/m3]	mass density, 303.15 K [kg/m3]	mass density, 308.15 K [kg/m3]	viscosity, 298.15 K [mPa·s]	viscosity, 303.15 K [mPa·s]	viscosity, 308.15 K [mPa·s]
x2 = 0	1033.1 ± 0.5	1029.9 ± 0.5	1025.4 ± 0.5	45.44 ± 0.53	33.99 ± 0.4	26.34 ± 0.31
x2 = 0.0771	1004.5 ± 0.4	1000.9 ± 0.4	996.1 ± 0.4	33.27 ± 0.39	24.28 ± 0.29	20.05 ± 0.24
x2 = 0.1213	989.9 ± 0.4	986.2 ± 0.4	981.6 ± 0.4	28.44 ± 0.34	20.82 ± 0.25	17.27 ± 0.21
x2 = 0.2425	953.6 ± 0.5	949.9 ± 0.5	945.8 ± 0.5	18.56 ± 0.23	13.93 ± 0.17	11.97 ± 0.15
x2 = 0.3311	930.7 ± 0.5	927 ± 0.5	923.1 ± 0.5	14.38 ± 0.18	11.28 ± 0.14	9.627 ± 0.13
x2 = 0.5225	888.7 ± 0.6	884.9 ± 0.6	881.3 ± 0.6	9.486 ± 0.12	8.063 ± 0.11	6.428 ± 0.091
x2 = 0.5377	885.7 ± 0.6	881.9 ± 0.6	878.2 ± 0.6	9.057 ± 0.12	7.837 ± 0.11	6.308 ± 0.089
x2 = 0.6309	868.9 ± 0.6	865.1 ± 0.7	861.5 ± 0.7	7.625 ± 0.1	6.725 ± 0.094	5.322 ± 0.078
x2 = 0.7444	850.3 ± 0.7	846.4 ± 0.7	842.9 ± 0.7	6.313 ± 0.089	5.206 ± 0.077	4.494 ± 0.067
x2 = 0.8611	833.3 ± 0.7	829.4 ± 0.7	826 ± 0.7	5.324 ± 0.078	4.61 ± 0.069	3.935 ± 0.059

CCC(C)O (stereo not drawn) [butan-2-ol]
[1]
Conditions	mass density [kg/m3]	viscosity [mPa·s]
298.15 K	802.4 ± 0.8	2.999 ± 0.046
303.15 K	798.7 ± 0.8	2.499 ± 0.039
308.15 K	793.8 ± 0.8	2.475 ± 0.038

CCC(C)O (stereo not drawn) [butan-2-ol] + OCCO
[2]
Conditions	mass density, 298.15 K [kg/m3]	mass density, 303.15 K [kg/m3]	mass density, 308.15 K [kg/m3]	viscosity, 298.15 K [mPa·s]	viscosity, 303.15 K [mPa·s]	viscosity, 308.15 K [mPa·s]
x1 = 0.0514	1085.8 ± 0.6	1081.8 ± 0.6	1078.5 ± 0.6	14.67 ± 0.18	12.2 ± 0.15	10.24 ± 0.13
x1 = 0.1049	1062.7 ± 0.6	1059.1 ± 0.6	1055.6 ± 0.5	13.78 ± 0.17	11.58 ± 0.15	9.795 ± 0.13
x1 = 0.1847	1029.6 ± 0.5	1025.9 ± 0.5	1022.8 ± 0.5	12.29 ± 0.16	10.43 ± 0.14	8.898 ± 0.12
x1 = 0.261	1000.3 ± 0.4	996.7 ± 0.4	993.4 ± 0.4	10.82 ± 0.14	9.184 ± 0.12	7.897 ± 0.11
x1 = 0.3516	968.3 ± 0.5	964.6 ± 0.5	960.9 ± 0.5	9.089 ± 0.12	7.76 ± 0.11	6.681 ± 0.093
x1 = 0.4562	934.5 ± 0.5	930.7 ± 0.5	926.9 ± 0.5	7.352 ± 0.1	6.211 ± 0.088	5.442 ± 0.079
x1 = 0.5039	920.3 ± 0.5	916.4 ± 0.6	912.5 ± 0.6	6.669 ± 0.093	5.641 ± 0.082	4.96 ± 0.074
x1 = 0.6639	876.9 ± 0.6	873.1 ± 0.6	868.9 ± 0.6	4.971 ± 0.074	4.182 ± 0.063	3.803 ± 0.057
x1 = 0.7723	850.9 ± 0.7	847.3 ± 0.7	842.9 ± 0.7	4.301 ± 0.065	3.618 ± 0.055	3.347 ± 0.051
x1 = 0.8751	828.2 ± 0.7	824.7 ± 0.7	820.1 ± 0.7	3.791 ± 0.057	3.18 ± 0.048	3.034 ± 0.046
x1 = 1	802.4 ± 0.8	798.7 ± 0.8	793.8 ± 0.8	2.999 ± 0.046	2.499 ± 0.039	2.475 ± 0.038

CCCCCCCO [heptan-1-ol]
[1]
Conditions	mass density [kg/m3]	viscosity [mPa·s]
298.15 K	818.9 ± 0.7	5.914 ± 0.085
303.15 K	815.4 ± 0.8	5.045 ± 0.075
308.15 K	811.9 ± 0.8	4.34 ± 0.065

CCCCCCCO [heptan-1-ol] + CC(O)CO
[2], x1 = 1
Conditions	mass density [kg/m3]	viscosity [mPa·s]
298.15 K	818.9 ± 0.7	5.914 ± 0.085
303.15 K	815.4 ± 0.8	5.045 ± 0.075
308.15 K	811.9 ± 0.8	4.34 ± 0.065

CCCCCCO [hexan-1-ol]
[1]
Conditions	mass density [kg/m3]	viscosity [mPa·s]
298.15 K	815.4 ± 0.8	4.643 ± 0.069
303.15 K	811.5 ± 0.8	3.999 ± 0.06
308.15 K	808.3 ± 0.8	3.471 ± 0.053

CCCCCCO [hexan-1-ol] + CC(O)CO
[2], x1 = 1
Conditions	mass density [kg/m3]	viscosity [mPa·s]
298.15 K	815.4 ± 0.8	4.643 ± 0.069
303.15 K	811.5 ± 0.8	3.999 ± 0.06
308.15 K	808.3 ± 0.8	3.471 ± 0.053
